Data from ChEMBL document CHEMBL3797113, “Structural requirements of acylated Gly-l-Ala-d-Glu analogs for activation of the innate immune receptor NOD2” (Eur J Med Chem, 2016).
The source made the active and inactive calls. No cut-off for these calls is given here.

Legend:
[1] = biological target: T1, Nucleotide-binding oligomerization domain-containing protein 2 (Homo sapiens, UniProt Q9HC29); experiment: Agonist activity at NOD2 receptor (unknown origin) expressed in HEK-Blue cells assessed as NF-kappaB transcriptional activity at 20 uM after 18 hrs by secreted embryonic alkaline phosphatase reporter gene assay relative to untreated control; format: cell-based
[2] = Cytotoxicity against NOD2 expressing HEK-Blue cells assessed as residual metabolic activity at 20 uM after 18 hrs by MTS assay relative to control; format: ADME, cell-based; settings: human, read-out: Activity
[3] = biological target: T2, Nucleotide-binding oligomerization domain-containing protein 1 (Homo sapiens) (UniProt Q9Y239); experiment: Agonist activity at NOD1 receptor (unknown origin) expressed in HEK-Blue cells assessed as NF-kappaB transcriptional activity at 20 uM after 18 hrs by secreted embryonic alkaline phosphatase reporter gene assay; format: cell-based
T2 sequence (whole entry): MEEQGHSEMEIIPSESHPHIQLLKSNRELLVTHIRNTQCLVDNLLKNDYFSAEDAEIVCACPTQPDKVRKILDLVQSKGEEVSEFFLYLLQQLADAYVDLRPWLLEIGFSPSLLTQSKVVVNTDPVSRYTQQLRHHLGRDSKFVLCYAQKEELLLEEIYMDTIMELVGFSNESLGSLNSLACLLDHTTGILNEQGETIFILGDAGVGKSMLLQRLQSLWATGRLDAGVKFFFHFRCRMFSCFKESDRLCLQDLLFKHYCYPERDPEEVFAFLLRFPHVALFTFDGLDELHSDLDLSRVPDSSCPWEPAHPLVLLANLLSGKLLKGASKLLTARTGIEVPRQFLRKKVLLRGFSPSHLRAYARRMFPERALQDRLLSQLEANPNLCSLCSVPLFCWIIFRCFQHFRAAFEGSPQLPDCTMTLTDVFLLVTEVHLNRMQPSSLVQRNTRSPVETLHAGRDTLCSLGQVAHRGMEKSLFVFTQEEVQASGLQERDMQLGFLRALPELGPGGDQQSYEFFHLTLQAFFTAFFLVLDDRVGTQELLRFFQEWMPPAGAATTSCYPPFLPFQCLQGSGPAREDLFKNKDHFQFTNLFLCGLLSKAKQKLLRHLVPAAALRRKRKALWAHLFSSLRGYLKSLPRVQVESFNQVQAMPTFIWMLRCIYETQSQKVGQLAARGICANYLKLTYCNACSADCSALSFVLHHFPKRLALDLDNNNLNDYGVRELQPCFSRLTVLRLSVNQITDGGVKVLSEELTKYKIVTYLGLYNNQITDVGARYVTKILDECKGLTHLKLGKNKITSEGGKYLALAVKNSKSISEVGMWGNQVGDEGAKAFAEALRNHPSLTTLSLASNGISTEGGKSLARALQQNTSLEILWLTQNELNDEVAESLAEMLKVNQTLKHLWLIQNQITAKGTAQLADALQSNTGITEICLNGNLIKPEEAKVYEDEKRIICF

[4] = biological target: T1, Nucleotide-binding oligomerization domain-containing protein 2; experiment: Agonist activity at NOD2 receptor (unknown origin) expressed in HEK-Blue cells assessed as NF-kappaB transcriptional activity after 18 hrs by secreted embryonic alkaline phosphatase reporter gene assay; format: cell-based

T1 sequence (Q9HC29 whole entry, the tested form may be a part): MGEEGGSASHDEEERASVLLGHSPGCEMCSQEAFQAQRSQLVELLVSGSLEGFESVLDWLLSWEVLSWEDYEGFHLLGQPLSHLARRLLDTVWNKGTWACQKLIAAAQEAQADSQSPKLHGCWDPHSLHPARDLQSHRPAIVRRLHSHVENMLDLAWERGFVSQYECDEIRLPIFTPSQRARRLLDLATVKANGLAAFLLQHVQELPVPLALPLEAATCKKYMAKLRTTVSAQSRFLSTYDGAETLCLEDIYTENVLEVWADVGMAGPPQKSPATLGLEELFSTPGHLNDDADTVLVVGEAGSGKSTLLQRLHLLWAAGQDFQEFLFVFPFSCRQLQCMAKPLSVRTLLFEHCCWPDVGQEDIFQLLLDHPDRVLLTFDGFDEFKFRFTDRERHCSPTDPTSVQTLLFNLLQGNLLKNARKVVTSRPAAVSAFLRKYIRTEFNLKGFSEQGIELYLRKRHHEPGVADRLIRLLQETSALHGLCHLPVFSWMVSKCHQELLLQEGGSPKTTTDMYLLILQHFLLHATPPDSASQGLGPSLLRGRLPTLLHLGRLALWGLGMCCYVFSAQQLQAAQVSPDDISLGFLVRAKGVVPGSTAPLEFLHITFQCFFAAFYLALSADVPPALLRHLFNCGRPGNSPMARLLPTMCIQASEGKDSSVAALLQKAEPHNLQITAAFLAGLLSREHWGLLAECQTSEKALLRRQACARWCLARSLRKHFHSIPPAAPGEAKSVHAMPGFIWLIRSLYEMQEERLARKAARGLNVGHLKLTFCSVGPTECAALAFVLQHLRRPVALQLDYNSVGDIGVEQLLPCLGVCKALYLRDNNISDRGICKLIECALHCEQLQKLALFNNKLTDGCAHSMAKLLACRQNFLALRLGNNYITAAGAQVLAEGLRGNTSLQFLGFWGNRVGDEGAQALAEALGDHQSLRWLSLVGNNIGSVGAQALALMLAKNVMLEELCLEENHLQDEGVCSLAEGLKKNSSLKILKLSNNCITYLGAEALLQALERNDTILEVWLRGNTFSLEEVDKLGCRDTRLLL

SMILES	fold change (FC) [1]	viability at 18 h, 20 µM [2]	Activity [3]	Activity [4]	EC50 [4]	Activity [1]
CCOC(=O)CC[C@@H](NC(=O)[C@H](C)NC(=O)CNC(=O)c1cc2cc(-c3ccccc3)ccc2[nH]1)C(=O)OCC	10.4	≥ 80%	inactive			
CCOC(=O)CC[C@@H](NC(=O)[C@H](C)NC(=O)CNC(=O)c1c[nH]c2ccccc12)C(=O)OCC	1.22	≥ 80%	inactive			
CC(=O)N[C@H]1C(O)O[C@H](CO)[C@@H](O)[C@@H]1O[C@H](C)C(=O)N[C@@H](C)C(=O)N[C@H](CCC(=O)O)C(N)=O (some centres not stated) [MURAMYL DIPEPTIDE]	11.5		inactive	Dose-dependent effect	0.046 µM	
CCOC(=O)CC[C@@H](NC(=O)[C@H](C)NC(=O)CNC(=O)c1cc2ccc(-c3ccccc3)cc2[nH]1)C(=O)OCC	11.2	≥ 80%	inactive	Dose-dependent effect	2.88 µM	
C[C@H](NC(=O)CNC(=O)c1cc2ccccc2[nH]1)C(=O)N[C@H](CCC(=O)O)C(=O)O	2.1	≥ 80%	inactive			
CCOC(=O)CC[C@@H](NC(=O)[C@H](C)NC(=O)CNC(=O)C1Cc2ccccc2N1C(=O)OC(C)(C)C)C(=O)OCC (some centres not stated)	2.58	≥ 80%	inactive			
CCOC(=O)CC[C@@H](NC(=O)[C@H](C)NC(=O)CNC(=O)c1cc2cccc(-c3ccccc3)c2[nH]1)C(=O)OCC	6.51	≥ 80%	inactive			
CCOC(=O)CC[C@@H](NC(=O)[C@H](C)NC(=O)CNC(=O)C1Cc2ccccc2N1)C(=O)OCC (some centres not stated)	3.17	≥ 80%	inactive			
CCOC(=O)CC[C@@H](NC(=O)[C@H](C)NC(=O)CNC(=O)c1cc2ccccc2[nH]1)C(=O)OCC	5.2		inactive			
CCOC(=O)CC[C@@H](NC(=O)[C@H](C)NC(=O)CNC(=O)C(=O)Nc1ccccc1)C(=O)OCC	1.15	≥ 80%	inactive			
CCOC(=O)CC[C@@H](NC(=O)[C@H](C)NC(=O)CNC(=O)c1cc2cc(F)ccc2[nH]1)C(=O)OCC	3.02	≥ 80%	inactive			
CCOC(=O)CC[C@@H](NC(=O)[C@H](C)NC(=O)CNC(=O)c1cc2ccccc2n1C)C(=O)OCC	2.14	≥ 80%	inactive			
CCOC(=O)CC[C@@H](NC(=O)[C@H](C)NC(=O)CNC(=O)/C=C/c1ccccc1)C(=O)OCC	7.37	≥ 80%	inactive			
CCOC(=O)CC[C@@H](NC(=O)[C@H](C)NC(=O)CNC(=O)c1ccc[nH]1)C(=O)OCC	1.08	≥ 80%	inactive			
C[C@H](NC(=O)CNC(=O)c1cc2ccccc2[nH]1)C(=O)N[C@H](CCC(=O)OCc1ccccc1)C(=O)OCc1ccccc1	8.82	≥ 80%	inactive			
CCOC(=O)CC[C@@H](NC(=O)[C@H](C)NC(=O)CCNC(=O)c1cc2ccccc2[nH]1)C(=O)OCC	1.41	≥ 80%	inactive			
CCOC(=O)CC[C@@H](NC(=O)[C@H](C)NC(=O)CNC(=O)c1cc2cc(Br)ccc2[nH]1)C(=O)OCC	4.58	≥ 80%	inactive			
Cc1nc(CC[C@@H](NC(=O)[C@H](C)NC(=O)CNC(=O)c2cc3ccccc3[nH]2)c2noc(C)n2)no1		≥ 80%	inactive			inactive
CCOC(=O)CC[C@@H](NC(=O)[C@H](C)NC(=O)CNC(=O)c1cc2c(-c3ccccc3)cccc2[nH]1)C(=O)OCC	2.95	≥ 80%	inactive			
CCOC(=O)CC[C@@H](NC(=O)[C@H](C)NC(=O)CNC(=O)c1cc2ccccc2n1Cc1ccc(F)cc1)C(=O)OCC	2.8	≥ 80%	inactive			
